Test results as given in publication PMC11787888, “Development and confirmation of humanized plasma and epithelial lining fluid exposures of meropenem, cefiderocol and tobramycin in a standardized neutropenic murine pneumonia model” (Journal of Antimicrobial Chemotherapy, 2024).
Values after ≈ are worked out from the molar mass of the structure shown. Read-outs that look alike come from different tables or passages of the source.

Tests used:
[1] = Plasma pharmacokinetics in the COMBINE murine neutropenic pneumonia model; settings: for k el: female, CD-1, mouse, plasma, sc; for K a (absorption rate constant into central compartment) / V plasma (volume of distribution in central compartment) / %fT > MIC for a MIC of 1 µg/mL / %fT > MIC for a MIC of 2 µg/mL / %fT > MIC for a MIC of 4 µg/mL / %fT > MIC for a MIC of 8 µg/mL / %fT > MIC for a MIC of 16 µg/mL / %fT > MIC for a MIC of 32 µg/mL / %fT > MIC for a MIC of 64 µg/mL / %fT > MIC for a MIC of 128 µg/mL: mouse plasma; for K a (absorption rate constant into central compartment) / V plasma (volume of distribution in central compartment): best-fit one-compartment model
Method: (§1) The model followed the COMBINE protocol with laboratory-specific detailed methods as follows.[6] Specific pathogen free CD-1, female mice 6–8 weeks old were acquired from Charles River Laboratories, Inc. (Raleigh, NC, USA). All animals were allowed to acclimatize for 72 h before any study procedures and were housed as groups of six at controlled room temperature in HEPA-filtered cages (Innovive, San Diego, CA, USA). Study rooms were maintained with diurnal cycles (12 h light/12 h dark) and food and water were provided ad libitum.
(§2) Neutropenia was achieved through 0.2 mL intraperitoneal (IP) administrations of cyclophosphamide 150 mg/kg on day minus 4 and an additional 100 mg/kg on day minus 1. A predictable degree of renal impairment was produced using 5 mg/kg of uranyl nitrate (Electron Microscopy Sciences, Hatfield, PA, USA) dissolved in sterile water administered as a 0.2 mL IP injection on day minus 3. […] Mice were anaesthetised using inhaled isoflurane, manually restrained upright and infected with 50 µL of bacterial suspension via the nares. Each bacterial inoculation suspension was used within 30 minutes of initial preparation.
(§3) The purpose of these studies was to establish HSRs in both plasma and ELF in the COMBINE murine neutropenic pneumonia model equivalent to clinical doses of meropenem (2 g every 8 h as 3 h infusion),[9] cefiderocol (2 g every 8 h as 3 h infusion)[10] and tobramycin (7 mg/kg as 0.5 h infusion)[11–13] based on unbound (free) exposures.
(§4) At predefined timepoints (shown in Figures 1–3), groups of six mice had blood sampled via retro-orbital bleeding (two time points, under anaesthesia with isoflurane 2%–3% v/v in 100% oxygen via inhalation) and/or cardiac puncture (one terminal time point). Proparacaine hydrochloride ophthalmic solution 0.5% was applied to the eye (1–2 drops) after blood sampling via retro-orbital bleeding. The volume of blood collected was 0.15 mL per sample via retro-orbital bleeding with subsequent fluid replacement using 0.2 mL normal saline given IP. Mice were euthanized by CO2 exposure before cardiac puncture. Following blood collection by cardiac puncture, but before cervical dislocation, bronchoalveolar lavage (BAL) fluid was collected from the mice at the same time points. A catheter was inserted into the trachea of the mice, and lungs were lavaged with four separate aliquots of 0.4 mL of normal saline. The BAL fluid was withdrawn immediately after injection and pooled for each animal. Pooled BAL was centrifuged for 10 min at 4°C and the supernatant was collected for analysis.
(§5) Drug concentrations in ELF were estimated by correcting the drug concentration in BAL fluid for the dilution with normal saline during lung lavage using the following formula: compoundELF = compoundBAL × (ureaplasma/ureaBAL), where compoundBAL is the measured drug concentration in the BAL fluid sample and ureaplasma and ureaBAL are the concentrations of urea in paired plasma and BAL fluid samples from each mouse, respectively. Owing to the lack of albumin in BAL fluid, total ELF concentrations were considered unbound.
(§6) Statistical outliers for each respective analyte were removed by the interquartile range method. Previously reported meropenem, cefiderocol and plazomicin (an aminoglycoside similar to tobramycin) plasma HSRs developed in alternative murine models were used as a baseline.[19],[20] Mathematical modifications were made to the baseline regimens as necessary to achieve translational exposures in the COMBINE model and repeat confirmatory PK studies were undertaken for both plasma and ELF.

clinical = settings: human, in vivo
Method: as §3

K. pneumoniae CDC 851 = test system: K. pneumoniae CDC 851; parameters: method as in earlier work; settings: cited from earlier work
[2] = parameters: method as in PMID 33371322, PMID 31724042, PMID 15107149; settings: cited from earlier work
[3] = Ex vivo tobramycin plasma protein binding in mice; format: in vitro ADME; settings: mouse plasma; for fraction unbound at 1 h: subcutaneous
Method: Escalating single doses of tobramycin (2.5, 5 and 10 mg/kg) were administered subcutaneously to determine tobramycin plasma protein binding. Triplicate pooled plasma and ultrafiltrate samples were collected at 1 h (5 mice per replicate, 15 mice per dose) and stored at −80°C until concentration determination. Whole blood was collected in K2EDTA tubes and then subsequently centrifuged at 4°C at 3000g for 10 minutes. Plasma was separated (total plasma) and 900 µL was added to an ultrafiltration device (Centrifree®, Merck Millipore Ltd, Ireland) and centrifuged using a fixed rotor at 10°C at 2000g for an additional 45 minutes to obtain protein free ultrafiltrate. The triplicate free and total tobramycin concentrations were averaged and then free fractions were calculated using the equation: free fraction = concentrationultrafiltrate/concentrationtotal plasma.
Mean percentages of protein binding (±standard deviation) were 27.1% (2.9%), 20.5% (9.3%) and 19.8% (1.5%) at the 1-h timepoint after receiving doses of 2.5, 5 and 10 mg/kg, respectively.

[4] = cited from earlier work
[5] = ELF pharmacokinetics in the COMBINE murine neutropenic pneumonia model; settings: for k el: female, CD-1, mouse, epithelial lining fluid (ELF), sc; for K a-ELF (absorption rate constant into ELF compartment) / V ELF (volume of distribution in ELF compartment) / %fT > MIC for a MIC of 1 µg/mL / %fT > MIC for a MIC of 2 µg/mL / %fT > MIC for a MIC of 4 µg/mL / %fT > MIC for a MIC of 8 µg/mL / %fT > MIC for a MIC of 16 µg/mL / %fT > MIC for a MIC of 32 µg/mL / %fT > MIC for a MIC of 64 µg/mL / %fT > MIC for a MIC of 128 µg/mL: mouse ELF; for K a-ELF (absorption rate constant into ELF compartment) / V ELF (volume of distribution in ELF compartment): best-fit one-compartment model
Method: as §1, §2, §3, §4, §5, §6

[6] = cited from earlier work; for %fT > MIC for a MIC of 1 µg/mL / %fT > MIC for a MIC of 2 µg/mL / %fT > MIC for a MIC of 4 µg/mL / %fT > MIC for a MIC of 8 µg/mL / %fT > MIC for a MIC of 16 µg/mL / %fT > MIC for a MIC of 32 µg/mL / %fT > MIC for a MIC of 64 µg/mL / %fT > MIC for a MIC of 128 µg/mL: human plasma, 2 g every 8 h as a 3 h infusion
[7] = parameters: method as in PMID 17283197, PMID 28848004; settings: murine plasma, previously determined; cited from earlier work
[8] = human, 7 mg/kg as 0.5 h infusion
[9] = human ELF, 2 g every 8 h as a 3 h infusion

## NC[C@H]1O[C@H](O[C@H]2[C@H](O)[C@@H](O[C@H]3O[C@H](CO)[C@@H](O)[C@H](N)[C@H]3O)[C@H](N)C[C@@H]2N)[C@H](N)C[C@@H]1O [Tobramycin, tobramycin]
[1]
  k el: 8.61e-05 s⁻¹
  K a (absorption rate constant into central compartment): 23.68 h⁻¹
  V plasma (volume of distribution in central compartment): 0.37 L/kg
[1]; murine, plasma HSR
  plasma fAUC0-24: 103000 ng·h/mL
  plasma fCmax: 17.7 mg/L
clinical
  Kp: 0.69
clinical; 7 mg/kg
  ELF fAUC0-24: 79000 ng·h/mL
  ELF fCmax: 6.8 mg/L
K. pneumoniae CDC 851
  MIC: 16 µg/mL (≈ 34.2 µM)
[2]
  Human plasma protein binding: 10%
[3]; average of 2.5, 5 and 10 mg/kg
  Unbound fraction in plasma: 77.6%
[3]; 1 h after 2.5 mg/kg subcutaneously, ultrafiltration, read-out: Mean percentage of protein binding (±standard deviation) (converted)
  fraction unbound at 1 h: 0.729
[3]; 1 h after 5 mg/kg subcutaneously, ultrafiltration, read-out: Mean percentage of protein binding (±standard deviation) (converted)
  fraction unbound at 1 h: 0.795
[3]; 1 h after 10 mg/kg subcutaneously, ultrafiltration, read-out: Mean percentage of protein binding (±standard deviation) (converted)
  fraction unbound at 1 h: 0.802
[3]; average of 2.5, 5 and 10 mg/kg, read-out: Plasma protein binding, average across the three doses (converted)
  fraction unbound at 1 h: 0.776
[4]; human, population PK analysis
  AUCELF/AUCplasma penetration ratio: 0.64
[5]
  k el: 9.72e-05 s⁻¹
  K a-ELF (absorption rate constant into ELF compartment): 1.74 h⁻¹
  V ELF (volume of distribution in ELF compartment): 0.79 L/kg
[5]; murine, ELF HSR
  ELF fAUC0-24: 76000 ng·h/mL
  ELF fCmax: 6.6 mg/L
[6]; [8]
  plasma fAUC0-24: 103000 ng·h/mL
  plasma fCmax: 18.3 mg/L

## C[C@@H](O)[C@H]1C(=O)N2C(C(=O)O)=C(S[C@@H]3CN[C@H](C(=O)N(C)C)C3)[C@H](C)[C@H]12 [Meropenem, meropenem]
[1]
  k el: 0.00754 s⁻¹
  K a (absorption rate constant into central compartment): 1.34 h⁻¹
  V plasma (volume of distribution in central compartment): 0.04 L/kg
[1]; plasma HSR
  %fT > MIC for a MIC of 1 µg/mL: 100%
  %fT > MIC for a MIC of 2 µg/mL: 100%
  %fT > MIC for a MIC of 4 µg/mL: 94%
  %fT > MIC for a MIC of 8 µg/mL: 75%
  %fT > MIC for a MIC of 16 µg/mL: 55%
  %fT > MIC for a MIC of 32 µg/mL: 29%
  %fT > MIC for a MIC of 64 µg/mL: 5%
  %fT > MIC for a MIC of 128 µg/mL: 0%
[4]; [9]
  %fT > MIC for a MIC of 1 µg/mL: 90%
  %fT > MIC for a MIC of 2 µg/mL: 71%
  %fT > MIC for a MIC of 4 µg/mL: 50%
  %fT > MIC for a MIC of 8 µg/mL: 16%
  %fT > MIC for a MIC of 16 µg/mL: 0%
  %fT > MIC for a MIC of 32 µg/mL: 0%
  %fT > MIC for a MIC of 64 µg/mL: 0%
  %fT > MIC for a MIC of 128 µg/mL: 0%
[5]
  k el: 0.000694 s⁻¹
  K a-ELF (absorption rate constant into ELF compartment): 7.00 h⁻¹
  V ELF (volume of distribution in ELF compartment): 1.60 L/kg
[5]; ELF HSR
  %fT > MIC for a MIC of 1 µg/mL: 78%
  %fT > MIC for a MIC of 2 µg/mL: 62%
  %fT > MIC for a MIC of 4 µg/mL: 43%
  %fT > MIC for a MIC of 8 µg/mL: 14%
  %fT > MIC for a MIC of 16 µg/mL: 3%
  %fT > MIC for a MIC of 32 µg/mL: 0%
  %fT > MIC for a MIC of 64 µg/mL: 0%
  %fT > MIC for a MIC of 128 µg/mL: 0%
[6]
  %fT > MIC for a MIC of 1 µg/mL: 100%
  %fT > MIC for a MIC of 2 µg/mL: 100%
  %fT > MIC for a MIC of 4 µg/mL: 100%
  %fT > MIC for a MIC of 8 µg/mL: 78%
  %fT > MIC for a MIC of 16 µg/mL: 50%
  %fT > MIC for a MIC of 32 µg/mL: 19%
  %fT > MIC for a MIC of 64 µg/mL: 0%
  %fT > MIC for a MIC of 128 µg/mL: 0%

## CC(C)(O/N=C(\C(=O)N[C@@H]1C(=O)N2C(C(=O)[O-])=C(C[N+]3(CCNC(=O)c4ccc(O)c(O)c4Cl)CCCC3)CS[C@H]12)c1csc(N)n1)C(=O)O [Cefiderocol, cefiderocol]
[1]
  k el: 0.000206 s⁻¹
  K a (absorption rate constant into central compartment): 21.71 h⁻¹
  V plasma (volume of distribution in central compartment): 0.19 L/kg
[1]; plasma HSR
  %fT > MIC for a MIC of 1 µg/mL: 100%
  %fT > MIC for a MIC of 2 µg/mL: 100%
  %fT > MIC for a MIC of 4 µg/mL: 91%
  %fT > MIC for a MIC of 8 µg/mL: 76%
  %fT > MIC for a MIC of 16 µg/mL: 50%
  %fT > MIC for a MIC of 32 µg/mL: 16%
  %fT > MIC for a MIC of 64 µg/mL: 0%
  %fT > MIC for a MIC of 128 µg/mL: 0%
[2]
  Human plasma protein binding: 58%
[7]
  Murine protein binding: 31.6%
[5]
  k el: 0.0002 s⁻¹
  K a-ELF (absorption rate constant into ELF compartment): 1.94 h⁻¹
  V ELF (volume of distribution in ELF compartment): 0.33 L/kg
[5]; ELF HSR
  %fT > MIC for a MIC of 1 µg/mL: 100%
  %fT > MIC for a MIC of 2 µg/mL: 100%
  %fT > MIC for a MIC of 4 µg/mL: 85%
  %fT > MIC for a MIC of 8 µg/mL: 50%
  %fT > MIC for a MIC of 16 µg/mL: 14%
  %fT > MIC for a MIC of 32 µg/mL: 0%
  %fT > MIC for a MIC of 64 µg/mL: 0%
  %fT > MIC for a MIC of 128 µg/mL: 0%
[6]
  %fT > MIC for a MIC of 1 µg/mL: 100%
  %fT > MIC for a MIC of 2 µg/mL: 99%
  %fT > MIC for a MIC of 4 µg/mL: 98%
  %fT > MIC for a MIC of 8 µg/mL: 76%
  %fT > MIC for a MIC of 16 µg/mL: 48%
  %fT > MIC for a MIC of 32 µg/mL: 11%
  %fT > MIC for a MIC of 64 µg/mL: 0%
  %fT > MIC for a MIC of 128 µg/mL: 0%
